The compounds below were run against PI 3-kinase gamma (Homo sapiens (Human), UniProt P48736) (assay: Cellular U937 AKT assay (Assay K)). Settings: AKT phosphorylation in U937 monocyte cells stimulated with 10 ng/ml MIP1α; read-out: Assay K PI3Kγ IC50.
Format: cell-based
Procedure: Cellular U937 AKT Assay for PI 3-Kinase Gamma (K)
The U937 monocyte cell line is maintained in a basal medium of RPMI 1640 supplemented with 10% heat inactivated FCS, 100 U/ml Penicillin, 100 ug/ml streptomycin and 2 mM L-glutamine (Invitrogen). U937 suspension culture is maintained by seeding cells at a density of 0.125×10^6 cells per ml in fresh medium every three or four days. Cells are incubated at 37° C., 5% CO2. Three or four days prior to assay, cells are seeded at a density of 0.25×10^6 cells per ml in a total volume of 40 ml in a T162 culture flask.
Before beginning the cell manipulations described below, the MSD (Meso Scale Discovery) assay plate is blocked by addition of 150 ul/well blocking buffer supplied and incubated with shaking for a minimum of one hour at room temperature. All steps of the assay must be performed quickly, with accurately timed incubation periods and observing temperature controls where indicated.
Cells seeded at 0.25×10^6/ml 3 or 4 days prior to the assay are aspirated, transferred to a 50 ml falcon tube, counted and centrifuged for eight minutes at 300 g at room temperature. Supernatant is aspirated, the cell pellet resuspended and washed once in HBSS (Hank's Balanced Salt Solution) by centrifugation for eight minutes at 300 g at room temperature. The cell pellet is resuspended in HBSS to a concentration of 4×10^6 per ml, and 100 μL of cell suspension added to each well of a flat-bottomed 96-well tissue culture plate. Assay plates are incubated for 1.5 hours at 37° C., 5% CO2 to allow background AKT phosphorylation to reduce before the compound stimulation step.
A 5 mM stock concentration of compound is prepared in 100% DMSO; from this a 1 in 125 dilution is made in HBSS giving a top compound concentration of 40 μM, 0.8% DMSO. Compound titrations are prepared in a fresh flat-bottomed, 96-well plate, by 10-fold serial dilution of 40 uM into HBSS 0.8% DMSO; pipette tips are replaced after each dilution is made. Compound concentrations at this stage are 4-times the final concentration required in the assay plate. Cells are stimulated with compound or HBSS 0.8% DMSO by direct transfer of 50 ul/well from the compound dilution plate. The assay plate containing compound-treated cells is then incubated for 30 minutes at 37° C. A standard plate layout is used for all experiments.
Compound-treated cells, in addition to positive control wells (“max MIP1α”), are stimulated with 50 μL per well of 40 ng/ml MIP1α (R&D Systems catalogue number 270-LD, lyophilized stock reconstituted to 50 μg/ml with PBS 0.1% BSA). Negative control wells (“min HBSS”), are stimulated with 50 μl/well of HBSS in the absence of MIP1α. Final compound concentrations are now diluted 4-fold giving a top concentration of 10 μM; where added, the final concentration of MIP1α is 10 ng/ml. Cells are incubated with MIP1α for 3 minutes, at 37° C., 5% CO2. After the three minute stimulation period, the assay plate is kept ice cold at all times. Assay plates are centrifuged for 2 minutes at 300 g, 4° C. and supernatant is removed by gently inverting, and then blotting the plate on tissue. Cells are then washed by gentle addition of 150 μL/well of ice cold HBSS and centrifugation at 300 g, for 5 minutes at 4° C. Supernatant is aspirated and the plate blotted as described above. The plate is placed on ice and cells are immediately treated with 35 μL per well of ice cold lysis buffer, prepared according to the kit instructions (per assay plate, to 5 ml of Tris lysis buffer add 100 μl of 50× protease inhibitor solution and 50 μl of each 100× phosphatase inhibitor solutions I and II). Plates are incubated on ice for 20 minutes before centrifugation at 841 g for 5 minutes, 4° C.
Block buffer is aspirated from the MSD plate, and the plate washed four times with 300 μl/well Tris wash buffer. 25 μL of cell lysate is then transferred from the assay plate to the washed MSD plate which is sealed and incubated at room temperature for one hour with shaking. […]

PI 3-kinase gamma, sequence (P48736 whole entry): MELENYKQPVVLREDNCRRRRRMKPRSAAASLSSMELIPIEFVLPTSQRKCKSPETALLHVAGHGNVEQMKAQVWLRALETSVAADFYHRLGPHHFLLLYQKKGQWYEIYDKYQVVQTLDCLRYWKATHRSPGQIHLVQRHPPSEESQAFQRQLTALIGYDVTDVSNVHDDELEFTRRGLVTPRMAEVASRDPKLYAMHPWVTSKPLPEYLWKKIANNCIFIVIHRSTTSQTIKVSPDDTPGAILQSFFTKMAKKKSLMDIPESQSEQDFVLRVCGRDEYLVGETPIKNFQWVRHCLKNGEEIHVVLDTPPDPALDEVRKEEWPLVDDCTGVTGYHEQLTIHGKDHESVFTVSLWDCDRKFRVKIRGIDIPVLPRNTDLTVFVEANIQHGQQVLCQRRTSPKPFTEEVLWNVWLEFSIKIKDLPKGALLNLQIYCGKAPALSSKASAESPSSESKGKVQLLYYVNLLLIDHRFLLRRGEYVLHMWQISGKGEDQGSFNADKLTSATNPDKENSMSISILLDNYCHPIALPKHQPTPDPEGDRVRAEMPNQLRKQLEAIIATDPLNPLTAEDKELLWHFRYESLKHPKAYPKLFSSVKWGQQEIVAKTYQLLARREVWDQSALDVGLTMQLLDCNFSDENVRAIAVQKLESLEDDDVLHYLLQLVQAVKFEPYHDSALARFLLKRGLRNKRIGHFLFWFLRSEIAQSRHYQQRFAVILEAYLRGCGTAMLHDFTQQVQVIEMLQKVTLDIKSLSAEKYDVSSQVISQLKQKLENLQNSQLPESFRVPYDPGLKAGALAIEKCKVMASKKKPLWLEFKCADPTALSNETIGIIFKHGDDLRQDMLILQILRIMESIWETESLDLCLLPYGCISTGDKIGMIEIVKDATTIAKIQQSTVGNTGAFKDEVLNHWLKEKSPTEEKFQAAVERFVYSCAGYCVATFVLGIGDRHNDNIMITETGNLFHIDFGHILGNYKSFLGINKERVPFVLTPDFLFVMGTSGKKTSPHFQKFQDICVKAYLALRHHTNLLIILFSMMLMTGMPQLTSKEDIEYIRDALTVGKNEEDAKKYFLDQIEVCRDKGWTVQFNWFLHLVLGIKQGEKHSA

SMILES | IC50
Cc1ncc(-c2cncc(-c3cc(S(=O)(=O)NCCCO)ccc3C)n2)s1 [Example 1, N-(3-Hydroxy-propyl)-4-methyl-3-[6-(2-methyl-thiazol-5-yl)-pyrazin-2-yl]-benzenesulfonamide] | 329 nM
Cc1ccc(S(=O)(=O)NCCC(C)(C)O)cc1-c1cncc(-c2cn(C)nc2C)n1 [Example 3, 3-[6-(1,3-Dimethyl-1H-pyrazol-4-yl)-pyrazin-2-yl]-N-(3-hydroxy-3-methyl-butyl)-4-methyl-benzenesulfonamide] | 80 nM
Cc1ccc(S(=O)(=O)NCC(C)(C)CO)cc1-c1cncc(-c2cn(C)nc2C)n1 [Example 8, 3-[6-(1,3-Dimethyl-1H-pyrazol-4-yl)-pyrazin-2-yl]-N-(3-hydroxy-2,2-dimethyl-propyl)-4-methyl-benzenesulfonamide] | 96 nM
Cc1ccc(S(=O)(=O)NCCC(C)(C)O)cc1-c1cncc(-c2cnn(CCN3CCOCC3)c2)n1 [Example 9, N-(3-Hydroxy-3-methyl-butyl)-4-methyl-3-{6-[1-(2-morpholin-4-yl-ethyl)-1H-pyrazol-4-yl]-pyrazin-2-yl}-benzenesulfonamide] | 599 nM
Cc1ccc(S(=O)(=O)NCCC(C)(C)O)cc1-c1cncc(-c2cn(CCN3CCOCC3)nc2C)n1 [Example 10, N-(3-Hydroxy-3-methyl-butyl)-4-methyl-3-{6-[3-methyl-1-(2-morpholin-4-yl-ethyl)-1H-pyrazol-4-yl]-pyrazin-2-yl}-benzenesulfonamide] | 121 nM
Cc1ccc(S(=O)(=O)N[C@H]2CC[C@H](O)CC2)cc1-c1cncc(-c2cccnc2)n1 [Example 11, Trans N-(4-Hydroxy-cyclohexyl)-4-methyl-3-(6-pyridin-3-yl-pyrazin-2-yl)-benzenesulfonamide] | 213 nM

These reach a lower IC50. Values come first.

IC50 | SMILES
66 nM | Cc1ccc(S(=O)(=O)NCC(C)(C)O)cc1-c1cncc(-c2cn(C)nc2C)n1 [Example 2, 3-[6-(1,3-Dimethyl-1H-pyrazol-4-yl)-pyrazin-2-yl]-N-(2-hydroxy-2-methyl-propyl)-4-methyl-benzenesulfonamide]
54 nM | Cc1ccc(S(=O)(=O)NCC2(C)COC2)cc1-c1cncc(-c2cn(C)nc2C)n1 [Example 4, Trans 3-[6-(1,3-Dimethyl-1H-pyrazol-4-yl)-pyrazin-2-yl]-4-methyl-N-(3-methyl-oxetan-3-ylmethyl)-benzenesulfonamide]
38 nM | Cc1ncc(-c2cncc(-c3cc(S(=O)(=O)N[C@H]4CC[C@H](O)CC4)ccc3C)n2)s1 [Example 5, Trans N-(4-Hydroxycyclohexyl)-4-methyl-3-(6-(2-methylthiazol-5-yl)pyrazin-2-yl)benzenesulfonamide]

Source: patent US9862711B2, “Pyrazine derivatives as phosphatidylinositol 3-kinase inhibitors” (NOVARTIS AG, priority 2014, dated 2018)
